One may read the solubility as the concentration that dissolves in the medium under given conditions.

The nature of series [1]: Measurement of solubility (shaking at 37° C., UHPLC). Format: physicochemical. Conditions: for solubility at 24 h / solubility at 30 min: thermodynamic from solid; for Solubility Mc pH 6.0: diluted McIlvaine buffer pH 6.0, shaking at 37° C. for 30 minutes; for Solubility diluted McIlvaine buffer pH 6.0: diluted McIlvaine buffer pH 6.0, shaking at 37° C. for 24 hours. On the procedure:
With regard to the measurement of solubility, solubility was calculated by the following operations.
Approximately 5 mg of a sample was weighed into a test tube, and then 5 mL each solution (see below) that had previously been set at 37° C. was added to the test tube.
Using Thermomixer Comfort (a shaker) manufactured by Eppendorf, the test tube was intensively shaken at 37° C. for 30 seconds at 750 rpm, and was then left at rest for 4 minutes 30 seconds. This shaking and resting operation was repeated 5 times (30 minutes in total).
The solutions obtained 30 minutes and 24 hours after initiation of the shaking were promptly filtered through a membrane filter (pore diameter: 0.45 μm), and the obtained filtrates were each diluted with a sample solution to an appropriate concentration. The concentration of a compound in the filtrate was measured by UHPLC, and solubility was then calculated.
The following solutions were used. • JP1: 2.0 g of sodium chloride was dissolved in 7.0 mL of hydrochloric acid and water to prepare 1000 mL of a solution (pH: about 1.2). • JP2: 118 mL of a 0.2 mol/L sodium hydroxide test solution and water were added to 250 mL of a 0.2 mol/L potassium dihydrogen phosphate test solution to prepare 1000 mL of a solution (pH: about 6.8). • Water: Ultrapure water (for use in LC/MS) manufactured by Wako Pure Chemical Industries, Ltd. was used. • Mc pH 6.0: A diluted McIlvaine buffer (pH 6.0) manufactured by Kanto Chemical Co., Inc. was used. • Mc pH 7.5: A diluted McIlvaine buffer (pH 7.5) manufactured by Kanto Chemical Co., Inc. was used.
Conditions for HPLC are as follows.
Apparatus: UHPLC H-Class manufactured by Waters
Mobile phase: A: 0.01 mol/L aqueous potassium phosphate solution (pH 4.0); B: acetonitrile
Column: Acquity UPLC BEH C18, 2.1 mm ID×75 mm, particle diameter: 1.7 μm (Waters)
Column temperature: 40° C.
Detection wavelength: 220 nm

Series [2] deals with intestinal phosphate absorption. In words: Rat 33P phosphate oral challenge test (intestinal phosphate absorption suppression test). Format: in vivo. The note with it: male SD rats, 30 mg/kg forced oral administration, serum radioactivity AUC0-60 min vs control group. On the procedure: (Test Example) Rat ^33P Phosphate Oral Challenge Test (Intestinal Phosphate Absorption Suppression Test)
Using male SD rats (5-7 weeks old) that had been fasted on the previous day, the compound described in the Examples was suspended or dissolved in a solvent such as 0.5% methyl cellulose (3-6 mg/mL), and the thus obtained solution was administered to each rat at a dose of 30 mg/kg by forced oral administration. On the other hand, regarding a control group, the solvent was administered to each rat at a dose of 5 mL/kg. Thirty minutes after administration, a […] phosphate solution (8.3 mM NaH2PO4, 0.35 MBq/mL) was administered to the rats at a dose of 7.2 mL/kg by forced oral administration. Then, 15, 30, 60, and 120 minutes after administration, blood was collected from the jugular vein of each rat under anesthesia with isoflurane. The radioactivity in […] was measured using a liquid scintillation counter, and the AUC0-60 min was then calculated from the radioactivity value. The obtained value was defined as an amount of phosphate absorbed. The phosphate absorption-inhibiting activity of the compound was calculated according to the following expression. Phosphate absorption-inhibiting activity (%)=[…]

The mark [3] stands for this setting: JP2 (pH about 6.8), shaking at 37° C. for 30 minutes.
Where [4] appears, read: JP2 (pH about 6.8), shaking at 37° C. for 24 hours.
[5] abbreviates: shaking at 37° C. for 30 minutes.

Converted amounts (≈) assume the structure as drawn. Counter-ions that a name gives are not always drawn. Like-named read-outs stand apart in the source and are kept apart here.

As to `CCN([C@H]1CC[C@H](C(=O)O)CC1)S(=O)(=O)c1cccc(C(=O)Nc2ccc(N3CCCCC3)cc2C(=O)Nc2ccc(CCc3ccc(C(=O)O)cc3)cc2)c1` [Example 1, Disodium 4-[2-(4-{[2-({3-[(trans-4-carboxycyclohexyl) (ethyl)sulfamoyl]benzoyl}amino)-5-(piperidin-1-yl)benzoyl]amino}phenyl)ethyl]benzoate trihydrate], the solubility at 24 h in series [1] (37 °C, pH 6.8, aqueous buffer, JP2 (pH about 6.8), shaking at 37° C. for 24 hours, unit inferred, read-out: Solubility JP2) is 10.7 µg/mL; in series [1] (JP1 solution (sodium chloride/hydrochloric acid in water), 37 °C, pH 1.2, simulated gastric fluid, JP1 (pH about 1.2), shaking at 37° C. for 24 hours, unit inferred, read-out: Solubility JP1), 1.3 µg/mL. Besides, the solubility at 30 min in series [1] (JP1 solution (sodium chloride/hydrochloric acid in water), 37 °C, pH 1.2, simulated gastric fluid, JP1 (pH about 1.2), shaking at 37° C. for 30 minutes, read-out: Solubility JP1) was 1 µg/mL. The “Solubility JP2” value in series [1] (JP2 (pH about 6.8), shaking at 37° C. for 30 minutes, trihydrate) was 40.3 µg/mL. The “Solubility Mc pH 6.0” value in series [1] (trihydrate) is 1.1 μg/mL. Also, the “Solubility diluted McIlvaine buffer pH 6.0” value in series [1] (trihydrate) came out at 0.1 μg/mL. For the same compound, the Solubility water was determined as 949.4 µg/mL in series [1] (shaking at 37° C. for 30 minutes, trihydrate) and 960.1 µg/mL in series [1] (shaking at 37° C. for 24 hours, trihydrate). The “Phosphorus absorption-inhibiting activity (%)” value in series [2] stood at 72%.

Take `CCN([C@H]1CC[C@H](C(=O)O)CC1)S(=O)(=O)c1cccc(C(=O)Nc2ccc(N3CCCCC3)cc2C(=O)Nc2ccc(CCc3ccc(C(=O)O)cc3)cc2)c1` [Example 6, potassium sodium 4-[2-(4-{[2-({3-[(trans-4-carboxycyclohexyl)(ethyl)sulfamoyl]benzoyl}amino)-5-(piperidin-1-yl)benzoyl]amino}phenyl)ethyl]benzoate hydrate]: the “Solubility JP2” value in series [1] (JP2 (pH about 6.8), shaking at 37° C. for 30 minutes, hydrate) came to 22.5 µg/mL; in series [1] (JP2 (pH about 6.8), shaking at 37° C. for 24 hours, hydrate), 968.5 µg/mL. Moreover, the Solubility water in series [1] (shaking at 37° C. for 30 minutes, hydrate) turned out to be 2.2 µg/mL; in series [1] (shaking at 37° C. for 24 hours, hydrate) it was 940.7 µg/mL. Moreover, the “Phosphorus absorption-inhibiting activity (%)” value in series [2] (hydrate, 30 mg/kg) is 59%.

As for `CCN([C@H]1CC[C@H](C(=O)O)CC1)S(=O)(=O)c1cccc(C(=O)Nc2ccc(N3CCCCC3)cc2C(=O)Nc2ccc(CCc3ccc(C(=O)O)cc3)cc2)c1` [Example 7, mono-p-toluenesulfonate of 4-[2-(4-{[2-({3-[(trans-4-carboxycyclohexyl)(ethyl)sulfamoyl]benzoyl}amino)-5-(piperidin-1-yl)benzoyl]amino}phenyl)ethyl]benzoic acid], the “Solubility JP1” value in series [1] (JP1 (pH about 1.2), shaking at 37° C. for 30 minutes) was found to be 0.7 µg/mL (≈ 0.896 µM). Moreover, the solubility at 24 h in series [1] (JP1 solution (sodium chloride/hydrochloric acid in water), 37 °C, pH 1.2, simulated gastric fluid, JP1 (pH about 1.2), shaking at 37° C. for 24 hours, unit printed as μL, read-out: Solubility JP1) was 0.1 µg/mL (≈ 0.128 µM). Besides, the results for the “Solubility JP2” value in series [1] (setting [3]) and in series [1] (setting [4]) were 61.7 µg/mL (≈ 79 µM) and 87.5 µg/mL (≈ 112 µM), respectively. For the same compound, in series [1], the “Solubility diluted McIlvaine buffer pH 6.0” value is recorded as 1058.4 μg/mL. In addition, in series [1] (diluted McIlvaine buffer pH 7.5, 37 °C, pH 7.5, aqueous buffer, diluted McIlvaine buffer pH 7.5, shaking at 37° C. for 30 minutes, read-out: Solubility Mc pH 7.5), the solubility at 30 min was 639 µg/mL (≈ 819 µM). The Solubility water in series [1] (setting [5]) and in series [1] (shaking at 37° C. for 24 hours) was 0.2 µg/mL (≈ 0.256 µM) in each case.

Turning to `CCN([C@H]1CC[C@H](C(=O)O)CC1)S(=O)(=O)c1cccc(C(=O)Nc2ccc(N3CCCCC3)cc2C(=O)Nc2ccc(CCc3ccc(C(=O)O)cc3)cc2)c1` [Example 8, monopiperazine salt of 4-[2-(4-{[2-({3-[(trans-4-carboxycyclohexyl)(ethyl)sulfamoyl]benzoyl}amino)-5-(piperidin-1-yl)benzoyl]amino}phenyl)ethyl]benzoic acid], the solubility at 24 h in series [1] (JP1 solution (sodium chloride/hydrochloric acid in water), 37 °C, pH 1.2, simulated gastric fluid, JP1 (pH about 1.2), shaking at 37° C. for 24 hours, read-out: Solubility JP1) is 1.4 µg/mL. The “Solubility JP2” value was found to be 105.7 µg/mL in series [1] (setting [3]) and 137.8 µg/mL in series [1] (setting [4]). Further, the “Solubility Mc pH 6.0” value in series [1] amounted to 3.3 μg/mL. For the same compound, the “Solubility diluted McIlvaine buffer pH 6.0” value in series [1] was 0.2 μg/mL. For the same compound, the results for the Solubility water in series [1] (setting [5]) and in series [1] (shaking at 37° C. for 24 hours) were 31.7 µg/mL and 429.5 µg/mL, respectively.

Source of the values: patent publication US10053437B2, “Salt of dicarboxylic acid compound” (Daiichi Sankyo Company, Limited, priority 2014, dated 2018).
